Reference: PMC4965013, “Open Source Drug Discovery with the Malaria Box Compound Collection for Neglected Diseases and Beyond” (PLoS Pathogens, 2016)

Key:
P. falciparum = experiment: EC50 listed in S2 Table Metabolomics (used to set the concentration tested); assay type: cell-based; details: Plasmodium falciparum; EC50 used for Factor_XEC50 in metabolomics; read-out: EC50_nM
[1] = tested on: P. falciparum 3D7 trophozoites; experiment: Metabolomic fingerprint profiling LC-MS; assay type: cell-based, Plasmodium falciparum; set-up: UDP-D-glucose / ADP-D-glucose: unit not given here; details: for Acetyllysine / N-acetyl-L-ornithine / N-carbamoyl-L-aspartate / NADPH / dAMP / dCMP / dTDP / dTMP / dTTP / dihydroorotate / orotate / DLH / DLS/SDL/SID / PD / PEE / PVNF / 3-phosphoglycerate / ADP-D-glucose / ATP / CDP / D-sedoheptulose-1/7-phosphate / FAD / GMP / NAD+ / NADP+ / Octoluse Bisphosphate / Pyroglutamic acid / UDP-D-glucose / UDP-D-glucuronate / UDP-N-acetyl-glucosamine / UDP / UMP / UTP / a-ketoglutarate / citrate/isocitrate / cytidine / dATP / dGMP/AMP / fumarate / glucose-1/6-phosphate / glycerate / guanine / guanosine / hypoxanthine / indole / inosine / nicotinate / ornithine / phosphoenolpyruvate / pyruvate / ribose-phosphate / sarcosine/alanine / sn-glycerol-3-phosphate / succinate/methylmalonic acid / uridine / xanthosine: S2 Table Metabolomics; for Acetyllysine: metabolite Acetyllysine; for N-acetyl-L-ornithine: metabolite N-acetyl-L-ornithine; for N-carbamoyl-L-aspartate: metabolite N-carbamoyl-L-aspartate; for NADPH: metabolite NADPH; for dAMP: metabolite dAMP; for dCMP: metabolite dCMP; for dTDP: metabolite dTDP; for dTMP: metabolite dTMP; for dTTP: metabolite dTTP; for dihydroorotate: metabolite dihydroorotate; for orotate: metabolite orotate; for DLH: peptide DLH; for DLS/SDL/SID: peptide DLS/SDL/SID; for PD: peptide PD; for PEE: peptide PEE; for PVNF: peptide PVNF; for 3-phosphoglycerate: metabolite 3-phosphoglycerate; for ADP-D-glucose: metabolite ADP-D-glucose; for ATP: metabolite ATP; for CDP: metabolite CDP; for CDP / D-sedoheptulose-1/7-phosphate / GMP / Octoluse Bisphosphate / UDP / UMP / UTP / citrate/isocitrate / dGMP/AMP / fumarate / glucose-1/6-phosphate / glycerate / guanine / guanosine / inosine / pyruvate / sarcosine/alanine / succinate/methylmalonic acid / uridine / xanthosine: change in metabolite level after compound treatment; for D-sedoheptulose-1/7-phosphate: metabolite D-sedoheptulose-1/7-phosphate; for FAD: metabolite FAD; for GMP: metabolite GMP; for NAD+: metabolite NAD+; for NADP+: metabolite NADP+; for Octoluse Bisphosphate: metabolite Octoluse Bisphosphate; for Pyroglutamic acid: metabolite Pyroglutamic acid; for UDP-D-glucose: metabolite UDP-D-glucose; for UDP-D-glucuronate: metabolite UDP-D-glucuronate; for UDP-N-acetyl-glucosamine: metabolite UDP-N-acetyl-glucosamine; for UDP: metabolite UDP; for UMP: metabolite UMP; for UTP: metabolite UTP; for a-ketoglutarate: metabolite a-ketoglutarate; for citrate/isocitrate: metabolite citrate/isocitrate; for cytidine: metabolite cytidine; for dATP: metabolite dATP; for dGMP/AMP: metabolite dGMP/AMP; for fumarate: metabolite fumarate; for glucose-1/6-phosphate: metabolite glucose-1/6-phosphate; for glycerate: metabolite glycerate; for guanine: metabolite guanine; for guanosine: metabolite guanosine; for hypoxanthine: metabolite hypoxanthine; for indole: metabolite indole; for inosine: metabolite inosine; for 2_3-Diphosphoglyceric acid / 4-phosphopantothenate / 6-phospho-D-gluconate / FMN / IMP / Pyrophosphate / Sedoheptoluse bisphosphate / cyclic-AMP / glutathione disulfide / lactate / myo-inositol: metabolite level change after treatment; for nicotinate: metabolite nicotinate; for ornithine: metabolite ornithine; for phosphoenolpyruvate: metabolite phosphoenolpyruvate; for pyruvate: metabolite pyruvate; for ribose-phosphate: metabolite ribose-phosphate; for sarcosine/alanine: metabolite sarcosine/alanine; for sn-glycerol-3-phosphate: metabolite sn-glycerol-3-phosphate; for succinate/methylmalonic acid: metabolite succinate/methylmalonic acid; for uridine: metabolite uridine; for xanthosine: metabolite xanthosine

CCCN(CCC)CC(O)COc1ccccc1C(=O)Nc1ccccc1 (stereo not shown) [MMV006455]
EC50 (P. falciparum): 196 nM
Acetyllysine [1]: -1.84
N-acetyl-L-ornithine [1]: -1.412
N-carbamoyl-L-aspartate [1]: -1.358
NADPH [1]: 1.245
dAMP [1]: 1.1553
dCMP [1]: -0.6709
dTDP [1]: 0.7128
dTMP [1]: 1.286
dTTP [1]: -0.4381
dihydroorotate [1]: -1.042
orotate [1]: -1.326
DLH [1]: -3.333
DLS/SDL/SID [1]: -1.242
PD [1]: -1.741
PEE [1]: -6.259
PVNF [1]: -1.503
3-phosphoglycerate [1]: 0.4787
ADP-D-glucose [1]: 0.3541
ATP [1]: 0.3304
CDP [1]: 0.5091
D-sedoheptulose-1/7-phosphate [1]: 0.2206
FAD [1]: 0.7675
GMP [1]: -0.1404
NAD+ [1]: 0.6496
NADP+ [1]: 1.103
Octoluse Bisphosphate [1]: 0.1196
Pyroglutamic acid [1]: -0.5503
UDP-D-glucose [1]: 0.16
UDP-D-glucuronate [1]: -0.0808
UDP-N-acetyl-glucosamine [1]: 0.351
UDP [1]: 0.8505
UMP [1]: -0.5223
UTP [1]: -1.889
a-ketoglutarate [1]: -0.6936
citrate/isocitrate [1]: -1.1034
cytidine [1]: 1.29
dATP [1]: -1.015
dGMP/AMP [1]: 0.4722
fumarate [1]: -1.1903
glucose-1/6-phosphate [1]: 2.348
glycerate [1]: 0.5071
guanine [1]: 0.09569
guanosine [1]: -0.9351
hypoxanthine [1]: 0.1926
indole [1]: -0.2645
inosine [1]: 0.3717
2_3-Diphosphoglyceric acid [1]: 0.5499
4-phosphopantothenate [1]: 0.373
6-phospho-D-gluconate [1]: 0.458
FMN [1]: 0.8429
IMP [1]: 0.8206
Pyrophosphate [1]: -0.6263
Sedoheptoluse bisphosphate [1]: 0.2316
cyclic-AMP [1]: 0.1549
glutathione disulfide [1]: 0.487
lactate [1]: 1.338
myo-inositol [1]: 3.347
nicotinate [1]: 0.09812
ornithine [1]: -0.2237
phosphoenolpyruvate [1]: 0.01215
pyruvate [1]: 0.467
ribose-phosphate [1]: -0.04809
sarcosine/alanine [1]: -0.7349
sn-glycerol-3-phosphate [1]: -0.3619
succinate/methylmalonic acid [1]: -0.7549
uridine [1]: 0.2304
xanthosine [1]: -2.143

CCOC(=O)c1ccc2nc(-c3ccccc3)cc(O)c2c1 [MMV006457]
EC50 (P. falciparum): 118 nM
Acetyllysine [1]: -0.3384
N-acetyl-L-ornithine [1]: -0.3139
N-carbamoyl-L-aspartate [1]: 4.351
NADPH [1]: 0.6352
dAMP [1]: -0.4724
dCMP [1]: -0.3312
dTDP [1]: -1.515
dTMP [1]: -1.363
dTTP [1]: -1.304
dihydroorotate [1]: 4.958
orotate [1]: -1.367
DLH [1]: -0.4882
DLS/SDL/SID [1]: -0.4763
PD [1]: 0.2786
PEE [1]: -0.4235
PVNF [1]: -0.7922
3-phosphoglycerate [1]: 0.07595
ADP-D-glucose [1]: 0.02112
ATP [1]: 0.06279
CDP [1]: -1.282
D-sedoheptulose-1/7-phosphate [1]: -0.2959
FAD [1]: 0.202
GMP [1]: 0.5528
NAD+ [1]: 0.1474
NADP+ [1]: -0.1781
Octoluse Bisphosphate [1]: -0.2401
Pyroglutamic acid [1]: 0.01503
UDP-D-glucose [1]: 0.02564
UDP-D-glucuronate [1]: -0.1377
UDP-N-acetyl-glucosamine [1]: -0.1506
UDP [1]: -1.814
UMP [1]: -1.819
UTP [1]: -1.644
a-ketoglutarate [1]: -0.2281
citrate/isocitrate [1]: -0.877
cytidine [1]: 0.9143
dATP [1]: 0.2755
dGMP/AMP [1]: -0.2048
fumarate [1]: 0.4222
glucose-1/6-phosphate [1]: 0.1449
glycerate [1]: -0.03038
guanine [1]: 0.7811
guanosine [1]: 0.4264
hypoxanthine [1]: 0.2443
indole [1]: 0.3097
inosine [1]: 0.319
2_3-Diphosphoglyceric acid [1]: -0.1036
4-phosphopantothenate [1]: -0.4551
6-phospho-D-gluconate [1]: 0.1425
FMN [1]: -0.04566
IMP [1]: 0.4558
Pyrophosphate [1]: 0.1188
Sedoheptoluse bisphosphate [1]: -0.2455
cyclic-AMP [1]: -0.04029
glutathione disulfide [1]: 0.1448
lactate [1]: 0.2927
myo-inositol [1]: -0.1285
nicotinate [1]: 0.07641
ornithine [1]: 0.3647
phosphoenolpyruvate [1]: -0.1372
pyruvate [1]: -0.1462
ribose-phosphate [1]: 0.3187
sarcosine/alanine [1]: 0.6115
sn-glycerol-3-phosphate [1]: 0.3451
succinate/methylmalonic acid [1]: -0.4755
uridine [1]: -0.2838
xanthosine [1]: -0.0194
